Experiment [1] relates to Sprague-Dawley rats. As to the kind of experiment: Low-intensity tail flick in the rat. The format is in vivo. Particulars: MPE. From the text: Low-Intensity Tail Flick in the Rat
The antinociceptive effectiveness of the test substance towards an acute, noxious thermal stimulus was studied in the focal ray (tail flick) test in the rat according to the method of D'Amour and Smith (J. Pharm. Exp. Ther. 72, 74 79 (1941)). Male Sprague-Dawley rats (breeder: Janvier, Le Genest St. Isle, France) weighing from 200 to 250 g were used for this purpose. The animals were accommodated individually in special test compartments and the base of the tail was exposed to the focused ray of an analgesia meter (model 2011, Rhema Labortechnik, Hofheim, Germany). 10 animals were used per group. Before a substance according to the invention was administered, the withdrawal latency (time from switching on of the focal ray to the sudden withdrawal of the tail) was determined twice at an interval of five minutes and the mean value was defined as the control latency time. The intensity of the focal ray was chosen so that the control latency time was 7 to 9 seconds. Measurement of the withdrawal latency was then repeated 10, 20, 30 and 60 minutes after peroral administration of substance. The antinociceptive action of the test substance was determined as the increase in the withdrawal latency time according to the following formula: MPE[%]=[(T1−T0)/(T2−T0)]×100 where: T0=control latency time before administration of substance, T1=latency time after administration of substance, T2=maximum exposure time to the focal ray (30 seconds), MPE=maximum possible effect.
Variance analysis (repeated measures ANOVA) was used to test for statistically significant differences between the substance group and the vehicle group. The level of significance was set at ≦0.05.

Experiment [2] has as its target T1, KCNQ2/3 channels (Homo sapiens, UniProt O43525+O43526).
T1 construct: expressed in transfected cells
As to the kind of experiment: Fluorescence assay using a voltage sensitive dye (fluorimetry). The format is cell-based. Particulars: CHO-K1 cells expressing KCNQ2/3 channels; for EC50: agonistic activity; for Emax: read-out: Fluorimetry % efficacy (retigabine 50 μM = 100%). A digest of the protocol: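 Agonist EC50s come from the F2 vs F1 fluorescence comparison, F2 taken at the peak after KCl depolarisation (92 mM final) and F1 after 30 min compound exposure at room temperature. Assay uses KCNQ2/3-expressing CHO-K1 cells stained 45 min with a red voltage-sensitive dye in pH 7.4 ES buffer.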

Where [3] appears, read: po, read-out: Low-intensity tail flick rat p.o. % effect (dose [mg/kg]).

Take `O=C(NCC1CC2CCC1C2)c1cccnc1SCCCc1cccc(C(F)(F)F)c1` (stereo not shown) [compound 27, N-(5-Bicyclo[2.2.1]heptanyl-methyl)-2-[3-[3-(trifluoromethyl)phenyl]-propylsulfanyl]-pyridine-3-carboxylic acid amide]: the inhibition in vivo at 10 mg/kg in experiment [1] (setting [3]) amounted to 18%. The molecule also returned a concentration for a half-maximal effect (EC50) in experiment [2] of 85 nM. In addition, the Emax in experiment [2] (retigabine 50 μM = 100%) was 210%.

In the case of `O=C(NCC1CCCCC1)c1cccnc1SCCCc1ccc(F)cc1` [compound 40, N-(Cyclohexyl-methyl)-2-[3-(4-fluorophenyl)-propylsulfanyl]-pyridine-3-carboxylic acid amide], the inhibition in vivo at 21.5 mg/kg in experiment [1] (po, dose 21.5 mg/kg, read-out: Low-intensity tail flick rat p.o. % effect (dose [mg/kg])) was 26%. In addition, the EC50 in experiment [2] came to 129 nM. In experiment [2] (retigabine 50 μM = 100%), the Emax turned out to be 144%.

On to `O=C(NCC1CC2CCC1C2)c1cccnc1SCCCc1ccc(F)cc1` (stereo not shown) [compound 51], for which the “Low-intensity tail flick rat p.o. % effect (dose [mg/kg])” value in experiment [1] (dose 21.5 mg/kg) is 49 (21.5) %. Further, the EC50 in experiment [2] was found to be 198 nM. Besides, the “Fluorimetry % efficacy (retigabine 50 μM = 100%)” value in experiment [2] (retigabine 50 μM = 100%) came to 192%.

Consider `O=C(NCC1CC2CCC1C2)c1cccnc1SCCCc1ccc(C(F)(F)F)c(F)c1` (stereo not shown) [compound 53, N-(5-Bicyclo[2.2.1]heptanyl-methyl)-2-[3-[3-fluoro-4-(trifluoromethyl)-phenyl]-propylsulfanyl]-pyridine-3-carboxylic acid amide], for which, in experiment [1] (setting [3]), the inhibition in vivo at 10 mg/kg was found to be 0%. The molecule further yielded an EC50 in experiment [2] of 302 nM. Besides, the Emax in experiment [2] (retigabine 50 μM = 100%) turned out to be 220%.

Regarding `O=C(NCC1CC2CCC1C2)c1cccnc1SCCCc1ccc(F)c(C(F)(F)F)c1` (stereo not shown) [compound 54, N-(5-Bicyclo[2.2.1]heptanyl-methyl)-2-[3-[4-fluoro-3-(trifluoromethyl)-phenyl]-propylsulfanyl]-pyridine-3-carboxylic acid amide], the inhibition in vivo at 10 mg/kg in experiment [1] (setting [3]) was 20%. Also, the EC50 in experiment [2] amounted to 133 nM. The Emax in experiment [2] (retigabine 50 μM = 100%) is 240%.

Regarding `O=C(NCc1ccc(F)cc1)c1cccnc1SCCCc1ccc(F)cc1` [compound 65, N-[(4-Fluorophenyl)-methyl]-2-[3-(4-fluorophenyl)-propylsulfanyl]-pyridine-3-carboxylic acid amide], the inhibition in vivo at 10 mg/kg in experiment [1] (setting [3]) was determined as 49%. For the same molecule, the concentration for a half-maximal effect (EC50) in experiment [2] was 40 nM. Besides, the Emax in experiment [2] (retigabine 50 μM = 100%) came out at 97%.

For `O=C(NCC1CC2CCC1C2)c1cccnc1SCCCc1cc(F)c(F)c(F)c1` (stereo not shown) [compound 68, N-(5-Bicyclo[2.2.1]heptanyl-methyl)-2-[3-(3,4,5-trifluoro-phenyl)-propylsulfanyl]-pyridine-3-carboxylic acid amide], the inhibition in vivo at 10 mg/kg in experiment [1] (setting [3]) amounted to 32%. In experiment [2], this molecule had an EC50 of 65 nM. Besides, the Emax in experiment [2] (retigabine 50 μM = 100%) came out at 280%.

The molecule `CCC(CNC(=O)c1cccnc1SCCC(F)(F)c1ccc(F)cc1)OC` (stereo not shown) [compound 195, 2-[[3,3-Difluoro-3-(4-fluorophenyl)-propyl]sulfanyl]-N-(2-methoxy-butyl)-pyridine-3-carboxylic acid amide] showed an EC50 in experiment [2] of 48 nM. Also, the Emax in experiment [2] (retigabine 50 μM = 100%) came out at 122%.

For `COC(=O)CCNC(=O)c1cccnc1SCCC(F)(F)c1ccc(F)cc1` [compound 196, 3-[[2-[[3,3-Difluoro-3-(4-fluorophenyl)-propyl]sulfanyl]-pyridine-3-carbonyl]amino]-propionic acid methyl ester], it took 3710 nM to reach a half-maximal effect in experiment [2] (EC50). Besides, the Emax in experiment [2] (retigabine 50 μM = 100%) stood at 190%.

In experiment [2], `O=C(O)CCNC(=O)c1cccnc1SCCC(F)(F)c1ccc(F)cc1` [compound 197, 3-[[2-[[3,3-Difluoro-3-(4-fluorophenyl)-propyl]sulfanyl]-pyridine-3-carbonyl]amino]-propionic acid] showed an EC50 of 14700 nM. Besides, the Emax in experiment [2] (retigabine 50 μM = 100%) was 128%.

Consider `CN(C)CCNC(=O)c1cccnc1SCCC(F)(F)c1ccc(F)cc1` [compound 198, 2-[[3,3-Difluoro-3-(4-fluorophenyl)-propyl]sulfanyl]-N-(2-dimethylaminoethyl)-pyridine-3-carboxylic acid amide], for which it took 8840 nM to reach a half-maximal effect in experiment [2] (EC50). In experiment [2] (retigabine 50 μM = 100%), the Emax worked out at 110%.

The molecule `CC(CCc1ccc(F)c(F)c1)Sc1ncccc1C(=O)NCc1ccc(F)cc1` (stereo not shown) [compound 199, 2-[[3-(3,4-Difluoro-phenyl)-1-methyl-propyl]sulfanyl]-N-[(4-fluorophenyl)-methyl]-pyridine-3-carboxylic acid amide] gave an EC50 in experiment [2] of 20 nM. Besides, in experiment [2] (retigabine 50 μM = 100%), the Emax worked out at 124%.

Regarding `CC(C)CCNC(=O)c1cccnc1SC(C)CCc1ccc(F)c(F)c1` (stereo not shown) [compound 200, 2-[[3-(3,4-Difluoro-phenyl)-1-methyl-propyl]sulfanyl]-N-(3-methyl-butyl)-pyridine-3-carboxylic acid amide], the EC50 in experiment [2] turned out to be 40 nM. Further, the Emax in experiment [2] (retigabine 50 μM = 100%) turned out to be 230%.

`CC(CCc1cccc(F)c1)Sc1ncccc1C(=O)NCc1ccc(F)cc1` (stereo not shown) [compound 201, N-[(4-Fluorophenyl)-methyl]-2-[[3-(3-fluorophenyl)-1-methyl-propyl]sulfanyl]-pyridine-3-carboxylic acid amide] registered a 50% effective concentration (EC50) in experiment [2] of 40 nM. Also, in experiment [2] (retigabine 50 μM = 100%), the Emax was determined as 128%.

In experiment [2], `CC(C)CCNC(=O)c1cccnc1SC(C)CCc1cccc(F)c1` (stereo not shown) [compound 202, 2-[[3-(3-Fluorophenyl)-1-methyl-propyl]sulfanyl]-N-(3-methyl-butyl)-pyridine-3-carboxylic acid amide] displayed an EC50 of 71 nM. Also, the Emax in experiment [2] (retigabine 50 μM = 100%) turned out to be 235%.

Consider `CC(C)CCNC(=O)c1cccnc1SC(C)CCc1cccc(C(F)(F)F)c1` (stereo not shown) [compound 203, N-(3-Methyl-butyl)-2-[[1-methyl-3-[3-(trifluoromethyl)phenyl]-propyl]sulfanyl]-pyridine-3-carboxylic acid amide], for which the midpoint of the response in experiment [2], the EC50, lay at 20 nM. For the same molecule, the Emax in experiment [2] (retigabine 50 μM = 100%) was found to be 233%.

In experiment [2], `O=C(NCc1ccc(F)cc1)c1cccnc1SCCC(F)(F)c1ccc(F)c(F)c1` [compound 204, 2-[[3-(3,4-Difluoro-phenyl)-3,3-difluoro-propyl]sulfanyl]-N-[(4-fluorophenyl)-methyl]-pyridine-3-carboxylic acid amide] had a 50% effective concentration (EC50) of 11 nM. Further, the Emax in experiment [2] (retigabine 50 μM = 100%) was found to be 125%.

For the molecule `O=C(NCC12CCC(CC1)C2)c1cccnc1SCCC(F)(F)c1ccc(F)cc1` [compound 205, N-(1-Bicyclo[2.2.1]heptanyl-methyl)-2-[[3,3-difluoro-3-(4-fluorophenyl)-propyl]sulfanyl]-pyridine-3-carboxylic acid amide], the EC50 in experiment [2] came to 28 nM. Besides, in experiment [2] (retigabine 50 μM = 100%), the Emax was found to be 294%.

Take `O=C(NCC12CCC(CC1)C2)c1cccnc1SCCCc1ccc(F)cc1` [compound 206, N-(1-Bicyclo[2.2.1]heptanyl-methyl)-2-[3-(4-fluorophenyl)-propylsulfanyl]-pyridine-3-carboxylic acid amide]: in experiment [2], the EC50 was found to be 40 nM. Further, the Emax in experiment [2] (retigabine 50 μM = 100%) was determined as 293%.

The molecule `O=C(NCc1ccc(F)cc1)c1cccnc1SCCCc1cccc(C(F)(F)F)c1` [compound 207, N-[(4-Fluorophenyl)-methyl]-2-[3-[3-(trifluoromethyl)phenyl]-propylsulfanyl]-pyridine-3-carboxylic acid amide] had an EC50 in experiment [2] of 34 nM. For the same molecule, the Emax in experiment [2] (retigabine 50 μM = 100%) stood at 119%.

Regarding `CC(C)CCNC(=O)c1cccnc1SCCCc1cccc(C(F)(F)F)c1` [compound 208, N-(3-Methyl-butyl)-2-[3-[3-(trifluoromethyl)phenyl]-propylsulfanyl]-pyridine-3-carboxylic acid amide], the EC50 in experiment [2] came to 27 nM. Further, the Emax in experiment [2] (retigabine 50 μM = 100%) stood at 207%.

In turn, `CC(C)CCNC(=O)c1cccnc1SCCC(F)(F)c1ccc(F)c(F)c1` [compound 209, 2-[[3-(3,4-Difluoro-phenyl)-3,3-difluoro-propyl]sulfanyl]-N-(3-methyl-butyl)-pyridine-3-carboxylic acid amide] registered an EC50 in experiment [2] of 9 nM. Also, the Emax in experiment [2] (retigabine 50 μM = 100%) was 228%.

In turn, `O=C(NCC1C2CCC1CC2)c1cccnc1SCCC(F)(F)c1ccc(F)c(F)c1` (stereo not shown) [compound 210, N-(7-Bicyclo[2.2.1]heptanyl-methyl)-2-[[3-(3,4-difluoro-phenyl)-3,3-difluoro-propyl]sulfanyl]-pyridine-3-carboxylic acid amide] gave an EC50 in experiment [2] of 14 nM. The Emax in experiment [2] (retigabine 50 μM = 100%) amounted to 276%.

`O=C(NCCO)c1cccnc1SCCC(F)(F)c1ccc(F)cc1` [compound 211, 2-[[3,3-Difluoro-3-(4-fluorophenyl)-propyl]sulfanyl]-N-(2-hydroxy-ethyl)-pyridine-3-carboxylic acid amide] showed an EC50 in experiment [2] of 8830 nM. For the same molecule, the Emax in experiment [2] (retigabine 50 μM = 100%) is 87%.

Source of the values: patent US8586755B2, “Substituted nicotinamides as KCNQ2/3 modulators” (Grünenthal GmbH, priority 2009, dated 2013).
